Laboratory results reported in patent publication US12371453B2, “Polypeptide having antibacterial activity, composition for preventing or treating sepsis comprising same, and antibacterial composition” (priority 2019, dated 2025).
In brackets after ≈: the same amount, converted by molar mass. Square brackets hold non-standard residues; d marks the D form. Peptide text beside a SMILES is read from it.

Legend:
[1] = Calcein dye leakage from liposome mimicking human red blood cell membrane; type: biochemical; details: calcein-encapsulated liposome
Description: To study an action mechanism for FP12-NH2, FP13-NH2, allD FP12-NH2, and allD FP13-NH2 peptides, the disruption ability of the peptides against liposomes mimicking a bacterial cell membrane and a red blood cell membrane was measured.
EYPG is an abbreviation for egg yolk L-α-phosphatidyl-DL-glycerol, and EYPC is an abbreviation for egg yolk 1,2-diacyl-sn-glycero-3-phosphocholine. CH is an abbreviation for cholesterol. After dissolving the phospholipids composed according to the content of each component in chloroform, the chloroform was removed using a rotary evaporator, and lyophilization was performed overnight. Afterward, the dried lipid film was dissolved in a Tris-buffer solution, and calcein […]. After repeated freezing and thawing, the calcein-encapsulated liposome was manufactured using an extruder. Subsequently, after an excitation wavelength of a spectrofluorimeter (Shimadzu RF 5301 PC spectrofluorimeter, Japan) was set to 490 nm, and an emission wavelength was set to 520 nm, the peptide was administered to the liposome to measure relative dye leakage, provided that a 100% dye leakage was expressed as fluorescence intensity when 0.010% Triton-X100 was added.
The upper graphs of FIG. 3 show the % dye leakage for an EYPC/EYPG (7:3, w/w) liposome mimicking bacterial cells, encapsulating a fluorescent dye, calcein, by a peptide according to a peptide concentration. […] The lower graphs of FIG. 3 show the % dye leakage for an EYPC/CH (10:1, w/w) liposome, which is […] mimicking a human red blood, encapsulating a fluorescent dye, calcein, by a peptide according to a peptide concentration.

A. baumannii = type: cell-based
[2] = LTA binding by ITC analysis; details: cell wall component of gram-positive bacteria (S. aureus)
Excerpt: (§1) The binding affinity to lipoteichoic acid (LTA) and lipoprotein (LPP), which are cell wall components of gram-positive bacteria (S. aureus), was confirmed through ITC analysis using allD FP13-NH2.
(§2) The binding affinity was confirmed using the ITC analysis method, and the experimental method in Example 1 was applied mutatis mutandis.

[3] = tested on: trypsin, protease K, and chymotrypsin; details: read out by antibacterial activity
[4] = tested on: Carbapenem resistant (CR)-Acinetobactor baumannii; assay: organism not typed
Description: (§3) The antibacterial activity was evaluated according to an antibacterial activity test method for measuring the minimum inhibitory concentration 50 (MIC50; the minimal concentration that kills 50% of bacteria).
(§4) More specifically, 100 μL of a medium was dispensed into each well of a 96-well plate, and in the first column, an antibiotic and a peptide in 200 μL of the medium were dispensed. 1/2 serial dilution was performed from columns 1 to 11 and five types of antibiotic-resistant bacteria (ESBL-resistant E. coli, carbapenem-resistant A. baumannii, carbapenem-resistant Klebsiella pneumoniae, carbapenem-resistant Pseudomonas aeruginosa, colistin-resistant Acinetobactor baumannii), which had been previously cultured, were diluted (OD600 nm value in dilution: approximately 0.0025) and dispensed into each well. The plate was incubated in a 37° C. incubator for 4 hours, and measured at OD600 nm.

[5] = tested on: Acinetobacter baumannii (ATCC 19606); assay: microbe, parasite or virus in culture; details: ATCC 19606
Description: (§5) To compare the antibacterial activity between the four commercially available antibiotics (ampicillin, gentamicin, levofloxacin and imipenem) and the allD FP13-NH2 (AcOH) peptide, an antibacterial activity test was performed to measure the minimum inhibitory concentrations (MIC50 and MIC80) for gram-negative and gram-positive standard strains (Escherichia coli DH5α, Escherichia coli K1, Acinetobacter baumannii, Pseudomonas aeruginosa, Salmonella enteritidis, Salmonella typhimurium, and Klebsiella pneumoniae).
(§6) More specifically, 100 μL of a medium was dispensed into each well of a 96-well plate, and in the first column, an antibiotic and a peptide in 200 μL of the medium were dispensed. 1/2 serial dilution was performed from columns 1 to 11, and gram-negative and gram-positive bacteria which had been previously cultured were diluted (OD600 nm value in dilution: approximately 0.0025) and dispensed into each well. The plate was incubated in a 37° C. incubator for 4 hours, and measured at OD600 nm.

[6] = tested on: Salmonela enteritidis (ATCC 13076); assay: microbe, parasite or virus in culture; details: ATCC 13076
Description: as §5, §6

[7] = tested on: Escherichia coli DH5α (ATCC PTA-4750); assay: microbe, parasite or virus in culture; details: Escherichia coli DH5α, 4 hours
Description: as §5, §6

Escherichia coli K1 = assay: microbe, parasite or virus in culture; details: K1
Description: as §5, §6

[8] = tested on: Pseudomanas aeruginosa PAO1 (ATCC 47085D-5); assay: microbe, parasite or virus in culture; details: PAO1
Description: as §5, §6

[9] = tested on: Klebiella pneumoniae (ATCC 13883); assay: microbe, parasite or virus in culture; details: ATCC 13883
Description: as §5, §6

[10] = tested on: Salmonela typhimurium (ATCC 53648); assay: microbe, parasite or virus in culture; details: Salmonella typhimurium ATCC 53648
Description: as §5, §6

[11] = Calcein dye leakage from liposome mimicking gram-positive bacterial cell membrane; type: biochemical; details: calcein-encapsulated liposome
Description: To study the action mechanisms for FPT2-NH2, FPT3-NH2, allD FPT2-NH2, and allD FP13-NH2 peptides, the disruption ability of the peptides against a liposome mimicking a bacterial cell membrane was measured.

lipoprotein (LPP) = assay: LPP binding by ITC analysis; details: cell wall component of gram-positive bacteria (S. aureus)
Excerpt: as §1, §2

ESBL (E. coli) = details: ESBL
Description: as §3, §4

[12] = tested on: Colistin resistant AB (Acinetobactor baumannii)
Description: as §3, §4

CR-Klebsiella pneumoniae = details: CR-
Description: as §3, §4

For `CC(C)C[C@@H](NC(=O)[C@H](N)CCCCN)C(=O)N[C@H](CCCNC(=N)N)C(=O)N[C@@H](C(=O)N[C@H](CCCCN)C(=O)N[C@H](CC(C)C)C(=O)N[C@H](CCCNC(=N)N)C(=O)N[C@H](CCCNC(=N)N)C(=O)N[C@H](Cc1ccc(O)cc1)C(=O)N[C@H](CC(C)C)C(=O)N[C@H](CCCNC(=N)N)C(N)=O)C(C)C` [allD FP13-NH2] (H-[dK][dL][dR][dV][dK][dL][dR][dR][dY][dL][dR]-NH2; N-terminus assumed), the “dye leakage, PC/CH liposome mimicking a red blood cell membrane” value [1] was “almost no dye leakage”, the MIC50 (A. baumannii) was 4 µM (≈ 6 µg/mL) and the MIC90 (A. baumannii) was 8 µM (≈ 12 µg/mL). For the same molecule, the “binding to LTA (ITC)” value [2] was “binds”, the “resistance to the proteolytic enzyme” value [3] was “much improved resistance” and the “MIC50, Carbapenem resistant (CR)-Acinetobactor baumannii” value [4] was <4 µg/mL. For the same molecule, the “MIC (μg/ml) 50%” value [5] was <4.0 µg/mL, the “MIC (μg/ml) 80%” value [5] was <8.0 µg/mL and the “MIC (μg/ml) 50%” value [6] was <1.0 µg/mL. For the same molecule, the “MIC (μg/ml) 80%” value [6] was <2.0 µg/mL, the “MIC (μg/ml) 50%” value ([7]; 50% growth inhibition) was <1.0 µg/mL and the “MIC (μg/ml) 80%” value ([7]; 80% growth inhibition) was <2.0 µg/mL. For the same molecule, the “MIC (μg/ml) 50%” value (Escherichia coli K1) was <2.0 µg/mL, the “MIC (μg/ml) 80%” value (Escherichia coli K1) was <4.0 µg/mL and the “MIC (μg/ml) 50%” value [8] was <0.5 µg/mL. For the same molecule, the “MIC (μg/ml) 80%” value [8] was <1.0 µg/mL, the “MIC (μg/ml) 50%” value [9] was <0.5 µg/mL and the “MIC (μg/ml) 80%” value [9] was <1.0 µg/mL. For the same molecule, the “MIC (μg/ml) 50%” value ([10]; 50% growth inhibition) was <2.0 µg/mL, the “MIC (μg/ml) 80%” value ([10]; 80% growth inhibition) was <4.0 µg/mL and the “dye leakage, EYPG/EYPC (6:4, w/w) liposome mimicking gram-positive bacterial cell membrane” value [11] was “high dye leakage”. For the same molecule, the “binding to LPP (ITC)” value (lipoprotein (LPP)) was “binds”, the “MIC50, ESBL (E. coli)” value (ESBL (E. coli)) was <0.5 µg/mL and the “MIC50, Colistin resistant AB” value [12] was <16 µg/mL. The “MIC50, CR-Klebsiella pneumoniae” value (CR-Klebsiella pneumoniae) was <8 µg/mL, the MIC50 (S. aureus) was 4 µM (≈ 6 µg/mL) and the MIC90 (S. aureus) was 8 µM (≈ 12 µg/mL).
